# Experimental data: a melting point compilation (Tetko et al.; mined from patent text by program, amines drawn as free bases though some values may be those of a salt)
row,Structure (SMILES),melting point [°C]
1,CC(C)c1[nH]n(-c2c(Cl)cc(Cl)cc2Cl)c2nc(Cc3ccc(C(=O)O)cc3)nc(=O)c1-2,294 to 295
2,CCCCc1nc(=O)c2cc(-c3nnn(C(c4ccccc4)(c4ccccc4)c4ccccc4)n3)ccc2[nH]1,182
3,Fc1ccc(/C=C/C2=CCN(Cc3c[nH]c4ncccc34)CC2)cc1F,208 to 210
4,CN1C(=O)C(c2ccc[nH]2)=C(c2cn(C(=O)OC(C)(C)C)c3ccccc23)C1=O,82 to 83
5,CNC(=O)COc1cccc(CCNC(=O)/C=C/c2cccnc2)c1,140 to 141
6,CCCCNS(=O)(=O)CC(O)C(O)C(CC1CCCCC1)NC(=O)c1ccc(O)nc1 (stereo not drawn),247 to 252
7,CCOC(=O)C(CC1C(O)C2CCN1CC2)c1ccccc1 (stereo not drawn),148
8,CCCOc1ccccc1-c1ccc(-c2nnn[nH]2)c(=O)[nH]1,229 to 231
9,COc1cc(OC)cc(C(=O)N2CCc3cc(OCc4ccccc4)c(OC)cc3C2=O)c1,180 to 181
10,COc1nc(C)cc(-n2cncn2)n1,98 to 98.5
11,Cc1cc2c(NC(=S)N3Cc4sccc4CC3CO)cccc2cn1 (racemic),145
12,CC(C)Cc1oc(-c2ccc(F)cc2)nc1CC(=O)O,125 to 126
13,COC(=O)c1ccc(CN2CC2C#N)c(OC)n1 (stereo not drawn),156 to 158
14,COc1cc2c(cc1OC)C(=O)C(CN1CCC3(CC1)C(=O)NCN3c1ccccc1)C2 (stereo not drawn),174 to 177
15,COc1ccc(Cn2nc(C3CCN(CCc4c(C)nc5n(c4=O)CCS5)CC3)c3ccc(F)cc32)cc1,146
16,CCC1(CC)CSc2ccccc2N(c2ccccc2)C1=O,86.4
17,O=C(NCc1ncco1)c1ccnc(N2CCN(Cc3ccc(F)cc3)C2=O)c1,148 to 150
18,CC(=O)OCc1c(C(=O)C(=O)O)c2cc(-c3cccc(C)c3)ccc2n1Cc1ccc(C)cc1,89 to 90
19,C[C@H](CC(F)(F)F)[C@@H](CO)NS(=O)(=O)c1ccc(Cl)s1,132 to 133
20,CC1(C)Cc2cccc(Cl)c2C=[N+]1[O-],110 to 111
21,CCCC(=O)c1cc2c(s1)CCC1CC(=O)N(c3ccc(Cl)cc3)N=C21 (stereo not drawn),157 to 159
22,O=C(Nc1ccc(Cl)c(Cl)c1)NS(=O)(=O)c1ccccc1,194 to 195
23,CN1C(C)(C)CC2(CC1(C)C)NC(=O)N(CC(O)COC(=O)CCCCC(=O)OCC(O)CN1C(=O)NC3(CC(C)(C)N(C)C(C)(C)C3)C1=O)C2=O (stereo not drawn),180 to 184
24,CCO[C@@H]1[C@@H](OC)[C@H](C)O[C@@H](OC(=O)N(C(C)=O)c2ccc(-c3ncn(-c4ccc(OC(F)(F)C(F)(F)F)cc4)n3)cc2)[C@@H]1OC,70 to 72
25,O=C(OCc1ccccc1)C1CCc2[nH]c3ccccc3c2C1 (stereo not drawn),104 to 105

row,Structure (SMILES),melting point [°C]
1,NS(=O)(=O)c1ccc(-n2nc(C(F)(F)F)cc2-c2ccc(-c3cscn3)cc2)cc1,188 to 190
2,CCOCc1nc2c(NC(=O)C(C)C)nc3ccccc3c2n1CC(C)(C)NS(C)(=O)=O,67 to 70
3,O=C1NCCc2ccc(OCCCCN3CCN(c4cccc5c4CCC5)CC3)nc2N1,70 to 72
4,CCCCCS(=O)(=O)NC(=O)/C=C/c1ccc(OCCOC(C)=O)cc1Oc1ncc(C(F)(F)F)cc1Cl,141 to 144
5,CC1(C)C(=O)Nc2cc(O)c([N+](=O)[O-])cc21,244 to 247
6,Cc1onc(CCc2ccccc2)c1C(=O)O,154 to 156
7,N#Cc1cnc2sc(-c3ccccc3)cc2c1Nc1ccc2[nH]ccc2c1,> 245
8,CC1(C)SC2C(N3C(=O)C(C4=CCC=CC4)NC3(C)C)C(=O)N2C1C(=O)O (stereo not drawn),186
9,O=C1CNN(c2cc(Cl)c(C(C(=O)O)c3ccc(Cl)cc3)c(Cl)c2)C(=O)N1 (stereo not drawn),194
10,CC12CC(CCCCCO)C3c4ccc(O)cc4CCC3C1CCC2O (stereo not drawn),152
11,Cc1cccc(-c2sc(N)nc2-c2ccnc(-c3ccc(CN(C)C)cc3)c2)n1,210
12,CC(C)C(C(=O)O)N(Cl)Cl (stereo not drawn),44 to 46
13,Nc1ccc2c(c1)N1CCCN=C1S2,197
14,CCOC(=O)c1cc(NCc2c(C)cccc2C)c2nc(C)n(C)c2c1,190
15,CC1CC(=O)c2c(C(=O)Nc3ccc(F)cc3)c[nH]c2C1 (stereo not drawn),262 to 264
16,COCCNS(=O)(=O)c1ccc2[nH]c(=O)c(=O)[nH]c2c1,264 to 267
17,COCC(O)Cc1ccc(-c2ccc3cc(C(=O)O)ccc3c2)cc1C12CC3CC(CC(C3)C1)C2 (stereo not drawn),240 to 242
18,CC1(C)Cc2cc(C3=NNC(=O)C4CCC34)ccc2NC1=O (stereo not drawn),301 to 302
19,COn1c(C)nc2c(NCc3c(C)cccc3C)cc(Br)cc21,171 to 172
20,O=C(NCCN(C1CC1)S(=O)(=O)c1ccccc1[N+](=O)[O-])N1CCN2C(=O)OC(c3ccccc3)(c3ccccc3)C2C1 (stereo not drawn),136 to 138
21,CCCCc1ccc(-c2ccc(CCc3cc(F)cc(F)c3)cc2)cc1,59
22,N#CS/C=C\C(=O)N1CCCCC1,88 to 90
23,COc1ccc2[nH]c(C(=O)c3ccccc3)c(NC(C)=O)c2c1,258 to 260
24,Cn1c(CO)nc2cnccc21,285 to 290
25,O=C1CCC(C2CCCCC2)CC1C(=S)Nc1ccccc1 (stereo not drawn),150

row,Structure (SMILES),melting point [°C]
1,CC(=C1SC(=O)NC1=O)c1ccc(SCCc2ccccc2)cc1,183 to 187
2,CCN1c2cscc2CN(C)c2ccccc21,135 to 137
3,Nc1cc(Sc2cccc3cnccc23)c(Cl)cc1[N+](=O)[O-],> 270
4,CC(C)(C)OC(=O)c1cc2cc(Cl)ccc2[nH]1,140 to 142
5,CCOC(=O)C(Cl)=Cc1cc(NC(N)=O)ccc1Cl,209 to 210
6,CC(=O)NCCn1c(=O)[nH]c2ccccc21,153
7,Cn1c(CNCC2CCOC2)cc2cc(NC(=O)c3ccc(OCC4CCOC4)cc3)ccc21 (stereo not drawn),131 to 133
8,COC(=O)CCc1ccc2c(c1)nc(N)c1ncn(CC(C)(C)O)c12,201 to 205
9,CC(C)C1(C)N=C(c2nc3occ([N+](=O)[O-])c3cc2C(=O)O)NC1=O (stereo not drawn),220 to 237
10,Cc1[nH]c(=O)c2c(ccc3nc(Nc4c(Cl)cccc4Cl)n(C)c32)c1CC(=O)N1CCOCC1,> 300
11,O=C(c1ccc2[nH]ccc2c1)N1CCN(CCc2ccc([N+](=O)[O-])cc2)CC1,204 to 206
12,CCCn1nc(-c2ccc(F)cc2)c(-c2ccc(S(C)(=O)=O)cc2)cc1=O,155 to 157
13,CC(C)(C)[Si](C)(C)OCCn1ccc(N)n1,54 to 55
14,Cc1cc(C(C)(C)C)c(O)c(S(=O)(=O)Nc2ccc(C#N)cc2Cl)c1,101 to 105
15,CN1C(=O)C(c2ccc(OC(F)F)cc2)(c2cccc(CCCCC#N)c2)N=C1N (stereo not drawn),65
16,O=S1(=O)CC2C(C1)N(CCO)CCN2CCO (stereo not drawn),145 to 147
17,COc1ccc(C(=O)C(N=C=S)c2ccc(OC)cc2)cc1 (stereo not drawn),155
18,CC(C)OC(=O)N1CCC(NC(=O)N2CCn3c(c(C(N)=O)c(Cl)c3-c3ccccc3)C2)CC1,166 to 167
19,CN(C)c1ccc(NC(=O)N(Cc2ccco2)C[C@H]2CCCC[C@H]2CN(Cc2ccco2)C(=O)Nc2ccc(N(C)C)cc2)cc1,106 to 110
20,COCOc1ccc(C=O)c(OCc2ccc(Cl)cc2Cl)c1C,128
21,Cc1nn(C)c(O)c1C(=O)c1ccc(Cl)c(OCCn2cnnn2)c1Cl,63 to 68
22,CC(C)(C)OC(=O)N1CCC2(Cc3cc4ccccc4n3C2)C1 (stereo not drawn),104 to 106
23,C=C[C@H](O)[C@H](Cc1ccccc1)NC(=O)OC(C)(C)C,98 to 100
24,O=C1OC(COc2ccccc2)CN1Sc1ccc(Cl)cc1 (stereo not drawn),98 to 101
25,Cn1c(=O)[nH]c2ccc(Br)cc21,237 to 238

row,Structure (SMILES),melting point [°C]
1,CC(C)[C@H](NC(=O)OC(C)(C)C)C(=O)C1CC(=O)NC1=O (stereo partly drawn),123 to 124
2,CCNCC1CCN(c2c(F)cc3c(=O)c(C(=O)O)cn(NC)c3c2F)C1 (stereo not drawn),222 to 224
3,COc1ccc(CC2CNC(=O)N2)cc1OC1CCCC1 (stereo not drawn),107 to 111
4,C=CCCCCCCCCOc1ccc(O)cc1,54 to 55
5,NC(=O)c1nnn(Cc2ccc(S(=O)c3ccc(Cl)cc3)c(Cl)c2)c1N (stereo not drawn),237 to 238
6,O=c1n(CO)c2ccccc2n1CO,157 to 161
7,CCCCc1cnc(-c2ccc(C#N)cc2)nc1,60.9 to 61.8
8,Nc1cc(-c2ccccc2)nn1-c1c(Cl)cc(C(F)(F)F)cc1Cl,142
9,O=c1ccc(-c2c(-c3ccccc3)nn3ccccc23)nn1[C@H]1CC[C@@H](C(=O)O)CC1,193 to 195
10,O=C(O)CCc1ccc(O)c([N+](=O)[O-])c1,80 to 82
11,CCn1cc(C(=O)Nc2ccccc2)c(=O)n2c3ccccc3nc12,268 to 270
12,COC(=O)C(CCC(C)(C)Cl)N(C)S(=O)(=O)NC(=O)OCc1ccccc1 (stereo not drawn),77 to 78
13,O=c1oc2c(c(O)c1C(c1ccccc1)C1CC1)CCCCC2CC1CC1 (stereo not drawn),77 to 83
14,CC(=O)NC1Cc2ccc(NC(=O)c3ccccc3-c3ccc(F)cc3)cc2C1 (stereo not drawn),218 to 220
15,CCOC(=O)C(Cc1ccc(OCc2ccccc2)cc1)Oc1ccc(OC(F)(F)F)cc1 (stereo not drawn),34 to 36
16,CCOC(=O)c1cccc(OCc2ccc3ccccc3c2)c1,45 to 46.5
17,COc1cc(C(=O)N2Cc3ccc(C(=O)NCc4ccc5c(c4)OCO5)n3Cc3ccccc32)ccc1-c1ccccc1C,167 to 168
18,CCOC(=O)c1cnn(C)c1C(=O)Nc1ccn2nc(Br)nc2c1,177 to 180
19,NC(=O)C(=O)Nc1nc(-c2cc3ccccc3oc2=O)cs1,297 to 300
20,COC(=O)CC[C@H](NC(=O)c1ccc(OCc2ccccc2)cc1)C(=O)OC,108 to 109
21,Clc1ccc(-c2nc3n(c2-c2ccc(Cl)cc2)CCC3)cc1,189 to 192
22,CCc1noc(NC(=O)N2CCN(c3ccnc(-c4cccc(F)c4F)n3)CC2)c1C,188 to 189
23,COCCOC(=O)CC[C@@H](NC(=O)[C@@H](NC(=O)OC(C)(C)C)C(C)C)C(N)=O,107 to 108
